For one series, the target named is glutaminyl cyclase (QC) (Homo sapiens, UniProt Q16769). The series can be described thus: Inhibitor assay for glutaminyl cyclase (QC) activity. The note with it: for Res. Act. (%): rapid test of QC-inhibition: 4 mM inhibitor, substrate concentration at 1 KM.
Chain of glutaminyl cyclase (QC) (Q16769 29-361): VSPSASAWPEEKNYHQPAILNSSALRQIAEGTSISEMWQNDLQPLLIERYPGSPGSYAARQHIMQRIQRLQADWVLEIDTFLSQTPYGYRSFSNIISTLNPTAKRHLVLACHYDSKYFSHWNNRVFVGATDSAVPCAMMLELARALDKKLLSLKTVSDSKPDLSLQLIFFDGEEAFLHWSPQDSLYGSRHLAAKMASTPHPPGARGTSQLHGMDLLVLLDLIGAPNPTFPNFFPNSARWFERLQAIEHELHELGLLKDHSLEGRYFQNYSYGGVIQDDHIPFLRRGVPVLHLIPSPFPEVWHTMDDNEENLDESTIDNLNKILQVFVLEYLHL

Experimental for glutaminyl cyclase (QC): Excitation/emission wavelengths were 320/410 nm. The assay reactions were initiated by addition of glutaminyl cyclase.
Reactions were carried out at 30° C. utilizing the NOVOStar reader for microplates (BMG labtechnologies). […] Excitation/emission wavelengths were 380/460 nm. The assay reactions were initiated by addition of glutaminyl cyclase. […] The kinetic data were evaluated using GraFit software.
The initial velocities were evaluated and the enzymatic activity was determined from a standard curve of ammonia under assay conditions. All samples were measured at 30° C., using either the [sequence]luor Plus or the Sunrise (both from TECAN) reader for microplates. Kinetic data was evaluated using GraFit software.
For inhibitor testing, the sample composition was the same as described above, except of the putative inhibitory compound added. […] For detailed investigations of the inhibition and determination of Ki-values, influence of the inhibitor on the auxiliary enzymes was investigated first.

On to `S=C(NCCCn1ccnc1)Nc1ccc(I)cc1` [Example 38], for which, at glutaminyl cyclase (QC), the affinity, expressed as Ki, was 2.12 µM and the “Res. Act. (%)” value is 23.5%.

For `COc1ccc(NC(=S)CCCCn2ccnc2)cc1OC`, the melting point lay within 128 to 128.5 °C.

For the molecule `COc1ccc(NC(=S)NC[C@H](C)Cn2ccnc2)cc1OC`, the melting point is 150.5 to 151.5 °C. Take `O=C(NCCCn1ccnc1)Nc1cc(F)cc2c1OCOC2` [Example 97]: on glutaminyl cyclase (QC), the 50% inhibitory concentration (IC50) amounted to 12 µM and the “Res. Act. (%)” value is on record as 19.0%.

With `S=C(NCCCn1ccnc1)NC1CCCCCCC1` [Example 44], on glutaminyl cyclase (QC), the IC50 turned out to be 9.1 µM and the “Res. Act. (%)” value turned out to be 33.1%. As for `S=C(NCCCn1ccnc1)NCc1ccc2c(c1)OCO2` [Example 47], the “Res. Act. (%)” value at glutaminyl cyclase (QC) is 42.7%. On to `N#Cc1ccc(NC(=S)NCCCn2ccnc2)cc1` [Example 22], for which, at glutaminyl cyclase (QC), the Ki worked out at 2.89 µM and the “Res. Act. (%)” value stood at 9.0%. As for `CCCCNC(=S)NCCCn1ccnc1` [Example 43], on glutaminyl cyclase (QC), half-maximal inhibition (IC50) was put at 14 µM and the “Res. Act. (%)” value is reported as 53.8%. Regarding `COc1ccc(NC(=S)NCc2cccc(Cn3ccnc3)c2)cc1OC` [Example 104], the affinity at glutaminyl cyclase (QC) corresponds to a Ki of 3.52 µM.

`CCCCCCCOc1ccc(NC(=O)NCCCn2ccnc2)cc1` [Example 99]: on glutaminyl cyclase (QC), the half-maximal inhibitory concentration (IC50) turned out to be 9.9 µM and the “Res. Act. (%)” value is reported as 5.6%. Molecule `COc1ccc(NC(=S)NCCCn2ccnc2)c(OC)c1` registered a melting point of 120 to 120.5 °C. Molecule `COc1ccc(C2(C(=S)NCCCn3ccnc3)CC2)cc1` registered a melting point of 129 to 129.5 °C. With `S=C(NCCCn1ccnc1)Nc1ccc(Br)cc1` [Example 39], the affinity at glutaminyl cyclase (QC) corresponds to a Ki of 2.52 µM. On to `O=S(=O)(c1ccc(NC(=S)NCCCn2ccnc2)cc1)N1CCCCC1` [Example 20], for which, at glutaminyl cyclase (QC), the affinity, expressed as Ki, was 2.27 µM and the “Res. Act. (%)” value turned out to be 8.5%.

`CC(C)(C)NC(=S)NCCCn1ccnc1` displayed a melting point of 147 to 147.5 °C. Same read-out and setting: with `COc1ccc(NC(=S)NC[C@@H](C)Cn2ccnc2)cc1OC` the figure was 155 to 157.5 °C.

On to `COc1ccc(NC(=S)NCCn2ccnc2)cc1OC`, for which the melting point was in the range of 157.5 to 159 °C.

The molecule `Cc1ccc(NC(=NC#N)NCCCn2ccnc2)cc1` [Example 75] yielded an inhibition constant (Ki) on glutaminyl cyclase (QC) of 1.34 µM. In the case of `S=C(NCCCn1ccnc1)Nc1ccc(-c2cnco2)cc1` [Example 17], at glutaminyl cyclase (QC), the Ki was 0.86 µM and the “Res. Act. (%)” value was 3.64%.

The molecule `COc1ccc(CC(=S)NCCCn2ccnc2)cc1OC` registered a melting point of 148 to 150 °C. At glutaminyl cyclase (QC), `S=C(Cc1cccs1)NCCCn1ccnc1` [Example 114] came in with a Ki of 3.29 µM. In turn, `CSc1ccc(NC(=S)NCCCn2ccnc2)cc1` [Example 33, 1-(3-(1H-imidazol-1-yl)propyl)-3-(4-(methylthio)phenyl)thiourea] came in with a melting point of 140 to 140.5 °C. On glutaminyl cyclase (QC), `COc1ccc(NC(=S)NCc2ccc(Cn3ccnc3)cc2)cc1OC` [Example 105] displayed a Ki of 1.86 µM. The molecule `C[C@H](C(=S)NCCCn1ccnc1)c1ccccc1` yielded a melting point of 82.5 to 83.5 °C. Same read-out and setting: for `S=C(NCCCn1ccnc1)Nc1ccc2c(c1)OCCO2` the value was 103 to 103.5 °C.

On to `COc1cc(NC(=NC#N)NCCCn2ccnc2)cc(OC)c1OC` [Example 60], for which, at glutaminyl cyclase (QC), the affinity, expressed as Ki, was 0.88 µM.

Consider `S=C(Cc1ccccc1)NCCCn1ccnc1` [Example 113], for which the inhibition constant (Ki) on glutaminyl cyclase (QC) was 4.62 µM. The same measure, in the same setting: for `COC(=O)c1ccc(NC(=S)NCCCn2ccnc2)cc1` [Example 9] the value was 1.19 µM; for `N#CN=C(NCCCn1ccnc1)Nc1ccc2c(c1)OCO2` [Example 59], 0.73 µM; for `COc1ccc(NC(=N)NCCCn2ccnc2)cc1OC` [Example 92], 204 µM. The molecule `CN(C)c1ccc(NC(=S)NCCCn2ccnc2)cc1` returned a melting point of 146.5 to 147 °C. `FC(F)(F)c1ccc(NC(=S)NCCCn2ccnc2)cc1` [Example 8, 1-(3-(1H-imidazol-1-yl)propyl)-3-(4-(trifluoromethyl)phenyl)thiourea] yielded a melting point of 154.5 to 155 °C. For the same molecule, at glutaminyl cyclase (QC), the inhibitory constant (Ki) came out at 3.93 µM and the “Res. Act. (%)” value is listed as 38.5%.

In the case of `COc1ccc(NC(=O)NCCCn2ccnc2)cc1OC1CCCC1` [Example 98], at glutaminyl cyclase (QC), the Ki is 0.62 µM and the “Res. Act. (%)” value came to 2.87%. The molecule `S=C(NCCCn1ccnc1)C1(c2ccc(Cl)cc2)CCCC1` gave a melting point of 140 to 141 °C.

`COc1cc(NC(=S)NCCCn2ccnc2)cc(OC)c1` yielded a melting point of 142 to 143 °C.

As for `S=C(NCCCn1ccnc1)C1(c2ccc(Cl)cc2)CCC1`, the melting point lay in the range of 137.5 to 139 °C.

As for `S=C(NCCCn1ccnc1)NCc1ccccc1`, the melting point was in the range of 127 to 128 °C. Same read-out and setting: with `CNC(=S)NCCCn1ccnc1` the figure was 122 to 122.5 °C.

`CCNC(=O)NCCCn1ccnc1` [Example 96]: the Ki at glutaminyl cyclase (QC) turned out to be 19.2 µM.

As for `COc1ccc(NC(=S)NCCCCn2ccnc2)cc1OC`, the melting point was in the range of 114.5 to 116 °C.

In turn, `COc1ccc(CNC(=S)NCCCn2ccnc2)cc1` [Example 29] yielded a Ki at glutaminyl cyclase (QC) of 3.93 µM. `COc1cccc(NC(=S)NCCCn2ccnc2)c1` showed a melting point of 89.5 to 90 °C. For `S=C(NCCCn1ccnc1)NCCN1CCOCC1` [Example 48], at glutaminyl cyclase (QC), the concentration for half-maximal inhibition (IC50) was determined as 13.3 µM and the “Res. Act. (%)” value is on record as 55.0%.

The molecule `CC(=O)c1ccc(NC(=S)NCCCn2ccnc2)cc1` [Example 10, 1-(3-(1H-imidazol-1-yl)propyl)-3-(4-acetylphenyl)thiourea] gave a melting point of 170 to 171 °C. Moreover, on glutaminyl cyclase (QC), the affinity corresponds to a Ki of 1.7 µM and the “Res. Act. (%)” value turned out to be 17.0%. For the molecule `CCOc1ccc(NC(=S)NCCCn2ccnc2)cc1` [Example 27, 1-(3-(1H-imidazol-1-yl)propyl)-3-(4-ethoxyphenyl)thiourea], at glutaminyl cyclase (QC), the “Res. Act. (%)” value amounted to 7.2%. With `C[C@@H](C(=S)NCCCn1ccnc1)c1ccccc1`, the melting point lay in the range of 82 to 82.5 °C. Take `S=C(NCCCn1ccnc1)NCc1ccco1` [Example 45]: on glutaminyl cyclase (QC), the half-inhibitory concentration (IC50) is 10 µM and the “Res. Act. (%)” value was determined as 61.4%. The matching figures for `S=C(NCCCn1ccnc1)NCC1CCCO1` (centres unmarked) [Example 46]: 12.8 µM and 46.0%. `COc1ccc(C2(C(=S)NCCCn3ccnc3)CCCCC2)cc1` showed a melting point of 162.5 to 164 °C. The same measure, in the same setting: with `CCc1ccc(NC(=S)NCCCn2ccnc2)cc1` the figure was 100 to 100.5 °C; with `COc1cc(NC(=S)NCCCn2ccnc2)cc(OC)c1OC`, 124.5 to 125.5 °C. Turning to `N#CN=C(NCCCn1ccnc1)NCc1ccccc1` [Example 68], at glutaminyl cyclase (QC), the Ki turned out to be 8.17 µM and the “Res. Act. (%)” value worked out at 22.5%. For `COc1ccc(NC(=S)NCC2(Cn3ccnc3)CC2)cc1OC`, the melting point was in the range of 166.5 to 168.5 °C. As to `COc1ccc(NC(=S)NCc2ccccc2Cn2ccnc2)cc1OC` [Example 103], at glutaminyl cyclase (QC), the inhibition constant Ki was determined as 4.84 µM and the “Res. Act. (%)” value was determined as 16.27%.

On glutaminyl cyclase (QC), `COc1cc(NC(=NC#N)NCCCn2ccnc2)cc(OC)c1` [Example 57] came in with a Ki of 0.91 µM. On to `S=C(NCCCn1ccnc1)Nc1ccc2c(c1)OCO2`, for which the melting point lay within 115 to 115.6 °C. As to `CN=C(NCCCn1ccnc1)Nc1ccc(OC)c(OC)c1` [Example 93], the affinity on glutaminyl cyclase (QC), expressed as Ki, was 3.62 µM. That is a single-digit micromolar value. Still for that read-out and setting: for `CCC(C(=S)NCCCn1ccnc1)c1ccccc1` (centres unmarked) [Example 117] the value was 3.57 µM. As to `COc1ccc(NC(=S)NCCCn2ccnc2)cc1` [Example 11, 1-(3-(1H-imidazol-1-yl)propyl)-3-(4-methoxyphenyl)thiourea], the “Res. Act. (%)” value at glutaminyl cyclase (QC) was determined as 9.7%.

What is called Ki is the equilibrium dissociation constant of an inhibitor or competing ligand from its target. The melting point is the temperature, or range, at which the solid turns liquid. A word on the IC50: it is the concentration that gives 50% inhibition. A higher IC50 goes with weaker potency in that assay.

The record behind these values is patent US7897633B2, “Inhibitors of glutaminyl cyclase” (Probiodrug AG, priority 2004, dated 2011).
